Drawing on PubChem BioAssay AID1259407 (Chemical Carcinogenesis Research Information System (CCRIS), 2018), this text covers mutagenic call for seven compounds.

The test system of the series is CCRIS mutagenicity, Ames/micronucleus/aberration tests. Description: CCRIS mutagenicity studies.
Where [1] appears, read: Test System: Mouse lymphoma, Strain/Indicator: L5178Y (tk+/tk-), Metabolic Activation: Rat, Liver, S-9, Aroclor 1254, Method: Suspension/plate.
Where [2] appears, read: Test System: AMES SALMONELLA TYPHIMURIUM, Strain/Indicator: TA100, Metabolic Activation: NONE, Method: STANDARD PLATE.
Setting [3] is: Test System: AMES SALMONELLA TYPHIMURIUM, Strain/Indicator: TA98, Metabolic Activation: NONE, Method: STANDARD PLATE.
Where [4] appears, read: Test System: AMES SALMONELLA TYPHIMURIUM, Strain/Indicator: TA1535, Metabolic Activation: NONE, Method: STANDARD PLATE.

Molecules are shown by their SMILES. Calls of active or inactive are those of the source. The rule behind the calls is not given here.

Regarding `C[N+](=O)[O-]`, the mutagenic call was “inactive; negative” (Test System: AMES SALMONELLA TYPHIMURIUM, Strain/Indicator: TA98, Metabolic Activation: HAMSTER, LIVER, S-9, AROCLOR 1254 (10%), Method: PREINCUBATION); “inactive; negative” (Test System: AMES SALMONELLA TYPHIMURIUM, Strain/Indicator: TA98, Metabolic Activation: HAMSTER, LIVER, S-9, AROCLOR 1254, FLAVIN MONONUCLEOTIDE, Method: PREINCUBATION); “inactive; negative” (Test System: AMES SALMONELLA TYPHIMURIUM, Strain/Indicator: TA98, Metabolic Activation: NONE, Method: PREINCUBATION); “inactive; negative” (Test System: AMES SALMONELLA TYPHIMURIUM, Strain/Indicator: TA98, Metabolic Activation: RAT, LIVER, S-9, AROCLOR 1254 (10%), Method: PREINCUBATION); “inactive; negative” (Test System: AMES SALMONELLA TYPHIMURIUM, Strain/Indicator: TA98, Metabolic Activation: RAT, LIVER, S-9, KANECHLOR 500, Method: PREINCUBATION); “inactive; negative” (Test System: AMES SALMONELLA TYPHIMURIUM, Strain/Indicator: TA100, Metabolic Activation: HAMSTER, LIVER, S-9, AROCLOR 1254 (10%), Method: PREINCUBATION). Moreover, the mutagenic call is, setting by setting: (Test System: AMES SALMONELLA TYPHIMURIUM, Strain/Indicator: TA100, Metabolic Activation: HAMSTER, LIVER, S-9, AROCLOR 1254, FLAVIN MONONUCLEOTIDE, Method: PREINCUBATION) “inactive; negative”; (Test System: AMES SALMONELLA TYPHIMURIUM, Strain/Indicator: TA100, Metabolic Activation: NONE, Method: PREINCUBATION) “inactive; negative”; (Test System: AMES SALMONELLA TYPHIMURIUM, Strain/Indicator: TA100, Metabolic Activation: RAT, LIVER, S-9, AROCLOR 1254 (10%), Method: PREINCUBATION) “inactive; negative”; (Test System: AMES SALMONELLA TYPHIMURIUM, Strain/Indicator: TA100, Metabolic Activation: RAT, LIVER, S-9, KANECHLOR 500, Method: PREINCUBATION) “inactive; negative”; (Test System: AMES SALMONELLA TYPHIMURIUM, Strain/Indicator: TA1535, Metabolic Activation: HAMSTER, LIVER, S-9, AROCLOR 1254 (10%), Method: PREINCUBATION) “inactive; negative”; (Test System: AMES SALMONELLA TYPHIMURIUM, Strain/Indicator: TA1535, Metabolic Activation: NONE, Method: PREINCUBATION) “inactive; negative”. Also, the mutagenic call by setting is: (Test System: AMES SALMONELLA TYPHIMURIUM, Strain/Indicator: TA1535, Metabolic Activation: RAT, LIVER, S-9, AROCLOR 1254 (10%), Method: PREINCUBATION) “inactive; negative”; (Test System: AMES SALMONELLA TYPHIMURIUM, Strain/Indicator: TA1537, Metabolic Activation: HAMSTER, LIVER, S-9, AROCLOR 1254 (10%), Method: PREINCUBATION) “inactive; negative”; (Test System: AMES SALMONELLA TYPHIMURIUM, Strain/Indicator: TA1537, Metabolic Activation: NONE, Method: PREINCUBATION) “inactive; negative”; (Test System: AMES SALMONELLA TYPHIMURIUM, Strain/Indicator: TA1537, Metabolic Activation: RAT, LIVER, S-9, AROCLOR 1254 (10%), Method: PREINCUBATION) “inactive; negative”; (Test System: E. COLI, Strain/Indicator: WP2 UVRA (PKM101), Metabolic Activation: NONE, Method: PREINCUBATION) “inactive; negative”; (Test System: E. COLI, Strain/Indicator: WP2 UVRA (PKM101), Metabolic Activation: RAT, LIVER, S-9, KANECHLOR 500, Method: PREINCUBATION) “inactive; negative”. Besides, the mutagenic call is “active; positive. reevaluation of results: equivocal” (Test System: MOUSE LYMPHOMA, Strain/Indicator: L5178Y (TK+/TK-), Metabolic Activation: NONE, Method: SUSPENSION/PLATE) and “inactive; negative” under setting [1].
As for `OC1c2ccc3cccnc3c2C2OC2C1O` (stereo not drawn), the mutagenic call under setting [2] was “active; positive”.
As to `COc1cccc2c1C(=O)c1c(O)c3c(c(O)c1C2=O)CC(O)(C(C)=O)CC3O[C@H]1C[C@H](N2CCOCC2)[C@@H](O)C(C)O1` (stereo partly drawn), the mutagenic call (Test System: CHINESE HAMSTER V-79, Strain/Indicator: V-79/8-AZAGUANINE, Metabolic Activation: NONE) was “active; positive”; the mutagenic call (Test System: CHINESE HAMSTER V-79, Strain/Indicator: V-79/8-AZAGUANINE, Metabolic Activation: RAT, HEPATOCYTES) was “inactive; negative”; the mutagenic call (Test System: UDS RAT HEPATOCYTES, Strain/Indicator: THY INCORP, Metabolic Activation: NONE, Method: AUTOMATIC COLONY COUNTER) is “active; positive”.
Take `CCN(CC)c1ccc(C(=C2C=CC(=[N+](CC)CC)C=C2)c2ccc(N(CC)CC)cc2)cc1`: the mutagenic call is, setting by setting: (Test System: AMES SALMONELLA TYPHIMURIUM, Strain/Indicator: TA98, Metabolic Activation: HAMSTER, LIVER, S-9, AROCLOR 1254 (10%), Method: STANDARD PLATE) “inactive; negative”; under setting [3], “inactive; negative”; (Test System: AMES SALMONELLA TYPHIMURIUM, Strain/Indicator: TA98, Metabolic Activation: RAT, LIVER, S-9, AROCLOR 1254 (10%), Method: STANDARD PLATE) “inactive; negative”; (Test System: AMES SALMONELLA TYPHIMURIUM, Strain/Indicator: TA100, Metabolic Activation: HAMSTER, LIVER, S-9, AROCLOR 1254 (10%), Method: STANDARD PLATE) “inactive; negative”; under setting [2], “inactive; negative”; (Test System: AMES SALMONELLA TYPHIMURIUM, Strain/Indicator: TA100, Metabolic Activation: RAT, LIVER, S-9, AROCLOR 1254 (10%), Method: STANDARD PLATE) “inactive; negative”. Besides, the mutagenic call under setting [4] was “inactive; negative”; the mutagenic call (Test System: AMES SALMONELLA TYPHIMURIUM, Strain/Indicator: TA1535, Metabolic Activation: RAT, LIVER, S-9, AROCLOR 1254 (10%), Method: STANDARD PLATE) was “inactive; negative”; the mutagenic call (Test System: AMES SALMONELLA TYPHIMURIUM, Strain/Indicator: TA1537, Metabolic Activation: HAMSTER, LIVER, S-9, AROCLOR 1254 (10%), Method: STANDARD PLATE) is “inactive; negative”; the mutagenic call (Test System: AMES SALMONELLA TYPHIMURIUM, Strain/Indicator: TA1537, Metabolic Activation: NONE, Method: STANDARD PLATE) was “inactive; negative”; the mutagenic call (Test System: AMES SALMONELLA TYPHIMURIUM, Strain/Indicator: TA1537, Metabolic Activation: RAT, LIVER, S-9, AROCLOR 1254 (10%), Method: STANDARD PLATE) is “inactive; negative”; the mutagenic call (Test System: AMES SALMONELLA TYPHIMURIUM, Strain/Indicator: TA1538, Metabolic Activation: HAMSTER, LIVER, S-9, AROCLOR 1254 (10%), Method: STANDARD PLATE) was “inactive; negative”. Further, the mutagenic call (Test System: AMES SALMONELLA TYPHIMURIUM, Strain/Indicator: TA1538, Metabolic Activation: NONE, Method: STANDARD PLATE) is “inactive; negative”; the mutagenic call (Test System: AMES SALMONELLA TYPHIMURIUM, Strain/Indicator: TA1538, Metabolic Activation: RAT, LIVER, S-9, AROCLOR 1254 (10%), Method: STANDARD PLATE) was “inactive; negative”; the mutagenic call (Test System: Mouse lymphoma, Strain/Indicator: L5178Y (tk+/tk-), Metabolic Activation: None, Method: Suspension/plate) was “inactive; negative”; the mutagenic call under setting [1] was “inactive; inconclusive (previous results negative)”.
`Oc1cccc2ccc3[nH]c4ccc5ccccc5c4c3c12`: the mutagenic call (Test System: AMES SALMONELLA TYPHIMURIUM, Strain/Indicator: TM677, Metabolic Activation: NONE, Method: PREINCUBATION) is “inactive; negative”; the mutagenic call (Test System: AMES SALMONELLA TYPHIMURIUM, Strain/Indicator: TM677, Metabolic Activation: RAT, LIVER, S-9, 3-METHYLCHOLANTHRENE (1%), Method: PREINCUBATION) is “inactive; negative”; the mutagenic call (Test System: AMES SALMONELLA TYPHIMURIUM, Strain/Indicator: TM677, Metabolic Activation: RAT, LIVER, S-9, 3-METHYLCHOLANTHRENE (10%), Method: PREINCUBATION) is “inactive; negative”; the mutagenic call (Test System: AMES SALMONELLA TYPHIMURIUM, Strain/Indicator: TM677, Metabolic Activation: RAT, LIVER, S-9, AROCLOR 1254 (10%), Method: PREINCUBATION) is “inactive; negative”.
As for `COc1ccc(CN(C)N=O)cc1`, the mutagenic call was “inactive; negative” (Test System: AMES SALMONELLA TYPHIMURIUM, Strain/Indicator: TA1535, Metabolic Activation: HAMSTER, LIVER, S-9, AROCLOR 1254, Method: STANDARD PLATE) and “inactive; negative” under setting [4].
Turning to `Cc1ccc2cc3c(c4c2c1CC4)C1NC1c1ccccc1-3` (stereo not drawn), the mutagenic call is “active; positive” under setting [3] and “active; positive” under setting [2].
